Laboratory results published in patent US9255132B2, “Angiopoietin derived peptides” (Compugen Ltd., priority 2008, dated 2016).
Residues, ends and D or L forms follow the SMILES beside them.

What was measured:
recombinant human Ang1 = target: T1, recombinant human Ang1 (Homo sapiens, UniProt Q15389); experiment: BIACORE (SPR) binding of peptides to immobilized recombinant Ang1; conditions: CM5 chip, 10-50 μM peptide
T1 construct: purchased R&D Systems 923-AN-025/CF
T1 sequence (Q15389 16-498): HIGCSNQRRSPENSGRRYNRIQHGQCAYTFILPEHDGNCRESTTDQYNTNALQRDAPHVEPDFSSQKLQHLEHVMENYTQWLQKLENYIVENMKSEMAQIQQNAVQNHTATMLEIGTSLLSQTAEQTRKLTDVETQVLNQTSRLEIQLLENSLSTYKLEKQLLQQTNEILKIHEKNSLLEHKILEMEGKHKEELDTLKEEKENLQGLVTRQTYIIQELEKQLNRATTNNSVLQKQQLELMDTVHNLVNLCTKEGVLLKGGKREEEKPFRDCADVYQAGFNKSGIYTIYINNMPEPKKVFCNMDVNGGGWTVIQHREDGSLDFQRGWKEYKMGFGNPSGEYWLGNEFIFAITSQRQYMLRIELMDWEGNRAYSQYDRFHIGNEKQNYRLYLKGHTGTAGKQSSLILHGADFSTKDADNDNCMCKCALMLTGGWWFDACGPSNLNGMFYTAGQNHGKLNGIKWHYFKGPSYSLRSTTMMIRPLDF
Text: (§1) The capability of CGEN-H2 [SEQ ID NO: 1], CGEN-H3 [SEQ ID NO: 2], CGEN-A8 [SEQ ID NO: 3], CGEN-H7 [SEQ ID NO: 4], CGEN-G4 [SEQ ID NO: 5], CGEN-G6 [SEQ ID NO: 6], CGEN-F9 [SEQ ID NO: 7], CGEN-F12 [SEQ ID NO: 8], CGEN-C6-30 [SEQ ID NO: 9], CGEN-All [SEQ ID NO: 10], and CGEN-G2 [SEQ ID NO: 11] to specifically bind to recombinant Ang1, Ang2, and Ang4 was investigated using the BIACORE technology, measuring protein-protein interaction and binding affinity (Wendler et al 2005, Anal Bioanal Chem, 381: 1056-1064). The technology is based on surface plasmon resonance (SPR), an optical phenomenon that enables detection of unlabeled interactants in real time. The SPR-based biosensors can be used in determination of active concentration, screening and characterization in terms of both affinity and kinetics.
(§2) Peptide-protein binding was analyzed using surface plasmon resonance. Analysis of the to interaction between CGEN-H2 [SEQ ID NO: 1], CGEN-H3 [SEQ ID NO: 2], CGEN-A8 [SEQ ID NO: 3], CGEN-H7 [SEQ ID NO: 4], CGEN-G4 [SEQ ID NO: 5], CGEN-G6 [SEQ ID NO: 6], CGEN-F9 [SEQ ID NO: 7], CGEN-F12 [SEQ ID NO: 8], CGEN-C6 [SEQ ID NO: 9], CGEN-A11 [SEQ ID NO: 10], and CGEN-G2 [SEQ ID NO: 11] peptides and recombinant human Ang1 carrier-free (R&D Systems, Cat#923-AN-025/CF, Lot#FHW1507031), human Ang2 carrier-free (R&D Systems, Cat#623-AN-025/CF, Lot#BNO0457121), and human Ang4 carrier-free (R&D Systems, Cat#964-AN-025/CF, Lot#ELM025121) was conducted using the BIAcore biosensor (Pharmacia Biosensor, Uppsala, Sweden). The recombinant Ang1, Ang2, and Ang4 were immobilized directly to a CM5 sensor chip. Solutions containing 10-50 μM of CGEN-H2 [SEQ ID NO: 1], CGEN-H3 [SEQ ID NO: 2], CGEN-A8 [SEQ ID NO: 3], CGEN-H7 [SEQ ID NO: 4], CGEN-G4 [SEQ ID NO: 5], CGEN-G6 [SEQ ID NO: 6], CGEN-F9 [SEQ ID NO: 7], CGEN-F12 [SEQ ID NO: 8], CGEN-C6 [SEQ ID NO: 9], CGEN-A11 [SEQ ID NO: 10], and CGEN-G2 [SEQ ID NO: 11] peptides were injected into the sample chamber of the BIACORE device at a rate of […] and the interaction was monitored using surface plasmon resonance.
(§3) Solutions containing different concentrations of CGEN-G6 [SEQ ID NO: 6], CGEN-F9 [SEQ ID NO: 7], CGEN-F12 [SEQ ID NO: 8], CGEN-A11 [SEQ ID NO: 10], and CGEN-G2 [SEQ ID NO: 11] peptides (as indicated in Table 2) were injected into the sample chamber of the BIACORE device at a rate of […] and the interaction was monitored using surface plasmon resonance. As a background, the solutions were also injected onto an empty flow cell with no immobilized ligand and the in binding levels achieved were subtracted. Data was analyzed using BIAevaluation software. The affinity constant of the interaction between CGEN-G6 [SEQ ID NO: 6], CGEN-F9 [SEQ ID NO: 7], CGEN-F12 [SEQ ID NO: 8], CGEN-C6 [SEQ ID NO: 9], CGEN-A11 [SEQ ID NO: 10], and CGEN-G2 [SEQ ID NO: 11] and Ang1, Ang2, or Ang4 was determined by direct kinetic analysis. The 1:1 Langmuir binding model was used to fit kinetic data.
(§4) Table 2 summarizes results of analysis of CGEN-G6 [SEQ ID NO: 6], CGEN-F9 [SEQ ID NO: 7], CGEN-F12 [SEQ ID NO: 8], CGEN-A11 [SEQ ID NO: 10], and CGEN-G2 [SEQ ID NO: 11] interaction with Ang1, Ang2, or Ang4. Kinetic measurements were done at the indicated concentration range, and they are presented as KD (M). CGEN-F12 [SEQ ID NO: 8] bound to Ang1 and Ang4 with high affinity. The specificity of this binding is not clear.

human Ang4 = target: T2, human Ang4 (Homo sapiens, UniProt Q9Y264); experiment: BIACORE (SPR) binding of peptides to immobilized recombinant Ang4; conditions: CM5 chip, 10-50 μM peptide
T2 construct: purchased R&D Systems 964-AN-025/CF
T2 sequence (Q9Y264 25-503): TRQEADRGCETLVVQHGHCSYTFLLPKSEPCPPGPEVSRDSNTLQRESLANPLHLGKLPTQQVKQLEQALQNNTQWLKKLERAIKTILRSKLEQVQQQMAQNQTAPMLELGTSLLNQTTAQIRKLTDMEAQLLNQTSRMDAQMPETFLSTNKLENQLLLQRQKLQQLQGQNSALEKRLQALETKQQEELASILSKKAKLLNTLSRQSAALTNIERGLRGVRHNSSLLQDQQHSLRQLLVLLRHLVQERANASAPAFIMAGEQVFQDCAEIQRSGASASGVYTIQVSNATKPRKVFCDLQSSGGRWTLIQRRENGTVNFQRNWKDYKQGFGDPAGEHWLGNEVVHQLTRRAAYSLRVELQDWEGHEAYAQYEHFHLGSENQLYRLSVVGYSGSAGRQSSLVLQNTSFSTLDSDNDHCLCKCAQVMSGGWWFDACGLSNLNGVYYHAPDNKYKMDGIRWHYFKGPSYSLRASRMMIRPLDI
Text: as §1, §2, §3, §4

Row | binding to immobilized Ang1 (in words) (recombinant human Ang1) | binding to immobilized Ang4 (in words) (human Ang4) | SMILES
1 | capable of binding | capable of binding | CC(=O)N[C@@H](CCC(=O)O)C(=O)N[C@H](C(=O)N[C@@H](Cc1ccccc1)C(=O)N[C@@H](CC(C)C)C(=O)N[C@@H](CO)C(=O)N[C@H](C(=O)N[C@@H](CC(N)=O)C(=O)N[C@@H](CCCCN)C(=O)N[C@@H](CC(C)C)C(=O)N[C@@H](CCC(=O)O)C(=O)N[C@@H](CC(N)=O)C(=O)N[C@@H](CCC(N)=O)C(N)=O)[C@@H](C)O)[C@@H](C)O [CGEN-A11, ETFLSTNKLENQ] (Ac-ETFLSTNKLENQ-NH2)
2 | capable of binding | capable of binding | CC[C@H](C)[C@H](NC(=O)[C@H](C)NC(=O)[C@H](CCCNC(=N)N)NC(=O)[C@H](CCC(=O)O)NC(=O)[C@H](CC(C)C)NC(=O)[C@H](CCCCN)NC(=O)[C@H](CCCCN)NC(=O)[C@H](CC(C)C)NC(=O)[C@H](Cc1c[nH]c2ccccc12)NC(=O)[C@H](CCC(N)=O)NC(=O)[C@@H](NC(=O)[C@H](CC(N)=O)NC(=O)[C@H](CC(N)=O)NC(=O)[C@H](CCC(N)=O)NC(=O)[C@H](CC(C)C)NC(=O)[C@H](C)NC(=O)[C@H](CCC(N)=O)NC(=O)[C@H](CCC(=O)O)NC(=O)[C@H](CC(C)C)NC(=O)[C@H](CCC(N)=O)NC(=O)[C@H](CCCCN)NC(=O)[C@@H](NC(=O)[C@H](CCC(N)=O)NC(=O)[C@H](CCC(N)=O)NC(=O)[C@@H](NC(C)=O)[C@@H](C)O)C(C)C)[C@@H](C)O)C(=O)N[C@@H](CCCCN)C(=O)N[C@H](C(=O)N[C@H](C(=O)N[C@@H](CC(C)C)C(N)=O)[C@@H](C)CC)[C@@H](C)O [CGEN-G2] (Ac-TQQVKQLEQALQNNTQWLKKLERAIKTIL-NH2)
3 | capable of binding | capable of binding | CSCC[C@H](NC(=O)[C@H](CC(C)C)NC(=O)[C@H](CC(=O)O)NC(C)=O)C(=O)N[C@@H](CCC(=O)O)C(=O)N[C@H](C(=O)N[C@H](C(=O)N[C@@H](CC(N)=O)C(=O)N[C@@H](CC(N)=O)C(=O)N[C@@H](CC(C)C)C(=O)N[C@@H](CC(C)C)C(=O)N[C@H](C(=O)N[C@@H](CCSC)C(=O)N[C@@H](CCSC)C(=O)N[C@@H](CO)C(=O)N[C@H](C(=O)N[C@@H](CO)C(=O)N[C@@H](CC(N)=O)C(=O)N[C@@H](CO)C(=O)N[C@@H](C)C(=O)N[C@@H](CCCCN)C(=O)N[C@@H](CC(=O)O)C(N)=O)[C@@H](C)O)[C@@H](C)O)C(C)C)[C@@H](C)O [CGEN-G6] (Ac-DLMETVNNLLTMMSTSNSAKD-NH2)
